# Molecular target: T1, 2-C-methyl-D-erythritol 2,4-cyclodiphosphate synthase (Escherichia coli (strain K12), UniProt P62617)
# T1 sequence (P62617 whole entry): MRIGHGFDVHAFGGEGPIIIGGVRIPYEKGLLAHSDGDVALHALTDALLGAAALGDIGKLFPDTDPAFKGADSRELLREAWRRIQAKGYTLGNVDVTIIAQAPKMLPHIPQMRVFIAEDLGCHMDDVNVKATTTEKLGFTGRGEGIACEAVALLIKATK
# Test: SPR Biosensor Assay
# Conditions: pH 7; 10 °C
# Procedure: An SPR assay was used to determine the binding affinities of compounds. Experiments were performed on a Biacore 3000 (Biacore, Uppsala, Sweden) instrument with CM5 research grade chips (Biacore, Uppsala, Sweden). Sensorgrams were recorded at a frequency of 2.5 Hz. EcIspF was immobilized using amine-coupling chemistry with readings between 4500 and 5500 response units were obtained. After immobilization, a 6 min injection at 5 uL min-1 of 1 M ethanolamine was used to quench excess active succinamide ester groups. SPR binding experiments with EcIspF were performed at 10 deg C in 50 mM sodium phosphate pH 7 and 2 mM MgCl2 at a flow rate of 30 uL min-1. The sensor surface was regenerated between experiments by applying the running buffer for 20 min to dissociate any ligand complex. This was followed by a further 20 min stabilization period. The 40 min total regeneration time between experiments helped to eliminate any carry-over of EcIspF bound to ligand. Each injection at a given concentration was repeated three times. Blank injections were included for each measurement series and subtracted from the data. The equilibrium (steady state) binding curves were analyzed by nonlinear regression and fit to a one-to-one Langmuir binding model. All ligands assessed by SPR were greater than 95% purity as established by high-performance liquid chromatography or combustion analysis.
compound,measurement,value
"N[C@@H](Cc1c[nH]c2ccccc12)C(=O)NO [Tryptophanhydroxamate, 13]",Kd,1920 nM
